Experimental data reported in PMC10447463, “Data-mining unveils structure–property–activity correlation of viral infectivity enhancing self-assembling peptides” (Nature Communications, 2023).
Read-outs that look alike come from different tables or passages of the source.

How the values were obtained:
[1] = assay type: physicochemical; conditions: for ThT Cat. / ThT-Fluorescence (categorical): ThT-active if fluorescence at least twice the control
Procedure, shortened: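 Fibrils (1 mg/mL solution) were mixed with 50 µM ThT in PBS for 15 min at RT, and fluorescence was read at λex 440/λem 488 nm against a PBS blank, as a triplicate mean ± SD. Zeta potential came from electrophoretic mobility (Smoluchowski) after 1 d aggregation at 1 mg/mL in PBS pH 7.4, diluted into 1 mM KCl.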

[2] = Turbidity, derived count rate of scattered light; assay type: physicochemical; conditions: for Count Rate / kcps: derived count rate of scattered light at 633 nm, 173°, from zeta-potential measurement, 0.1 mg/mL in 1 mM KCl after 1 d at 1 mg/mL in PBS, turbidity / microscopic aggregation, mean of triplicate
Procedure, shortened: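 One-day room-temperature aggregation at 1 mg/mL in PBS (pH 7.4) preceded measurement; samples then went into 1 mM KCl. Triplicates per sample, two independent experiments averaged.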

[3] = Log10 of derived count rate of scattered light (turbidity)
[4] = turbidity, Log10 of derived count rate of scattered light, Figure 3A source data
[5] = turbidity, log10 of derived count rate of scattered light
[6] = ThT fluorescence category, 1 if Rel. ThT >2

| Substance | Tht category (> 2 to blank = +) ([1]; Fig S10 panel D) | ThT Cat. ([1]; Fig S10 panel E) | Tht category (> 2 to blank = +) ([1]; FigS12 panel A) | ThT Cat, ([1]; FigS12 panel B) | ThT Cat, ([1]; ThT category, 1 if Rel. ThT >2) | ThT Cat. ([1]; ThT category, 1 if Rel. ThT >2) | ThT Cat. / ThT-Fluorescence (categorical) [1] | Log10 Count Rate [2, 3] | Count Rate / kcps [2] [kcps] | Log10 Count Rate [2, 4] | Log10 Count Rate [2, 5] | ThT Cat. [1, 6] | Log10 Count Rate ([2]; log10 of derived count rate of scattered light (turbidity)) |
| --- | --- | --- | --- | --- | --- | --- | --- | --- | --- | --- | --- | --- | --- |
| CKFQC | 0 (ThT-inactive (N-Fold <2)) | 0 (ThT-inactive (N-Fold <2)) | 0 (ThT-inactive (N-Fold <2)) | 0 (ThT-inactive (N-Fold <2)) | 0 (ThT-inactive (N-Fold <2)) | 0 (ThT-inactive (N-Fold <2)) | 0 (ThT-inactive (N-Fold <2)) | 2.115 | 130 | 2.115 | 2.115 |  |  |
| QCKAKAQA | 0 (ThT-inactive (N-Fold <2)) |  | 0 (ThT-inactive (N-Fold <2)) | 0 (ThT-inactive (N-Fold <2)) | 0 (ThT-inactive (N-Fold <2)) | 0 (ThT-inactive (N-Fold <2)) | 0 (ThT-inactive (N-Fold <2)) | 3.12 | 1319 | 3.12 | 3.12 |  |  |
| CETMYDKILKNLSRSR | 0 (ThT-inactive (N-Fold <2)) | 0 (ThT-inactive (N-Fold <2)) | 0 (ThT-inactive (N-Fold <2)) | 0 (ThT-inactive (N-Fold <2)) | 0 (ThT-inactive (N-Fold <2)) | 0 (ThT-inactive (N-Fold <2)) | 0 (ThT-inactive (N-Fold <2)) | 3.041 | 1099 | 3.041 | 3.041 |  |  |
| FDPFDPFDP | 0 (ThT-inactive (N-Fold <2)) |  | 0 (ThT-inactive (N-Fold <2)) | 0 (ThT-inactive (N-Fold <2)) | 0 (ThT-inactive (N-Fold <2)) | 0 (ThT-inactive (N-Fold <2)) | 0 (ThT-inactive (N-Fold <2)) | 2.412 | 258 | 2.412 | 2.412 |  |  |
| HLHLPLL | 0 (ThT-inactive (N-Fold <2)) | 0 (ThT-inactive (N-Fold <2)) | 0 (ThT-inactive (N-Fold <2)) | 0 (ThT-inactive (N-Fold <2)) | 0 (ThT-inactive (N-Fold <2)) | 0 (ThT-inactive (N-Fold <2)) | 0 (ThT-inactive (N-Fold <2)) | 2.301 | 200 | 2.301 | 2.301 |  |  |
| KIKIQINMWA | 0 (ThT-inactive (N-Fold <2)) |  |  |  | 0 (ThT-inactive (N-Fold <2)) |  | 0 (ThT-inactive (N-Fold <2)) | 3.042 | 1101 | 3.042 | 3.042 | 0 (ThT-inactive (N-Fold <2)) |  |
| RGECKFKFQF | 1 (ThT. Cat is 1, if Rel. ThT >2) | 1 (ThT. Cat is 1, if Rel. ThT >2) |  |  | 1 (ThT. Cat is 1, if Rel. ThT >2) | 1 (ThT. Cat is 1, if Rel. ThT >2) | 1 (ThT. Cat is 1, if Rel. ThT >2) | 2.341 | 219 | 2.341 | 2.341 |  |  |
| SISISRRI | 0 (ThT-inactive (N-Fold <2)) | 0 (ThT-inactive (N-Fold <2)) | 0 (ThT-inactive (N-Fold <2)) | 0 (ThT-inactive (N-Fold <2)) | 0 (ThT-inactive (N-Fold <2)) | 0 (ThT-inactive (N-Fold <2)) | 0 (ThT-inactive (N-Fold <2)) | 1.403 | 25 | 1.403 | 1.403 |  |  |
| KYKGAIIGNIK | 0 (ThT-inactive (N-Fold <2)) |  | 0 (ThT-inactive (N-Fold <2)) | 0 (ThT-inactive (N-Fold <2)) | 0 (ThT-inactive (N-Fold <2)) | 0 (ThT-inactive (N-Fold <2)) | 0 (ThT-inactive (N-Fold <2)) | 1.644 | 44 | 1.644 | 1.644 |  |  |
| NMWQKVGTPL | 1 (ThT. Cat is 1, if Rel. ThT >2) |  | 1 (ThT. Cat is 1, if Rel. ThT >2) | 1 (ThT. Cat is 1, if Rel. ThT >2) | 1 (ThT. Cat is 1, if Rel. ThT >2) | 1 (ThT. Cat is 1, if Rel. ThT >2) | 1 (ThT. Cat is 1, if Rel. ThT >2) | 1.431 | 27 | 1.431 | 1.431 |  |  |
| NMWQKIKQII | 0 (ThT-inactive (N-Fold <2)) |  | 0 (ThT-inactive (N-Fold <2)) | 0 (ThT-inactive (N-Fold <2)) | 0 (ThT-inactive (N-Fold <2)) | 0 (ThT-inactive (N-Fold <2)) | 0 (ThT-inactive (N-Fold <2)) | 2.992 | 982 | 2.992 | 2.992 |  |  |
| QCKIKQIINM | 1 (ThT. Cat is 1, if Rel. ThT >2) |  |  |  | 1 (ThT. Cat is 1, if Rel. ThT >2) | 1 (ThT. Cat is 1, if Rel. ThT >2) | 1 (ThT. Cat is 1, if Rel. ThT >2) | 4.313 | 20551 | 4.313 | 4.313 |  |  |
| CEFEFQF | 0 (ThT-inactive (N-Fold <2)) |  | 0 (ThT-inactive (N-Fold <2)) | 0 (ThT-inactive (N-Fold <2)) | 0 (ThT-inactive (N-Fold <2)) |  | 0 (ThT-inactive (N-Fold <2)) | 2.565 | 367 | 2.565 |  | 0 (ThT-inactive (N-Fold <2)) | 2.565 |
| CRFRVPF | 0 (ThT-inactive (N-Fold <2)) | 0 (ThT-inactive (N-Fold <2)) | 0 (ThT-inactive (N-Fold <2)) | 0 (ThT-inactive (N-Fold <2)) | 0 (ThT-inactive (N-Fold <2)) | 0 (ThT-inactive (N-Fold <2)) | 0 (ThT-inactive (N-Fold <2)) | 1.869 | 74 | 1.869 | 1.869 |  |  |
| HGEHGE | 0 (ThT-inactive (N-Fold <2)) |  | 0 (ThT-inactive (N-Fold <2)) | 0 (ThT-inactive (N-Fold <2)) | 0 (ThT-inactive (N-Fold <2)) | 0 (ThT-inactive (N-Fold <2)) | 0 (ThT-inactive (N-Fold <2)) | 2.381 | 241 | 2.381 | 2.381 |  |  |
| CKFC | 0 (ThT-inactive (N-Fold <2)) | 0 (ThT-inactive (N-Fold <2)) | 0 (ThT-inactive (N-Fold <2)) | 0 (ThT-inactive (N-Fold <2)) | 0 (ThT-inactive (N-Fold <2)) | 0 (ThT-inactive (N-Fold <2)) | 0 (ThT-inactive (N-Fold <2)) | 2.371 | 235 | 2.371 | 2.371 |  |  |
| KFKFQF | 0 (ThT-inactive (N-Fold <2)) | 0 (ThT-inactive (N-Fold <2)) | 0 (ThT-inactive (N-Fold <2)) | 0 (ThT-inactive (N-Fold <2)) | 0 (ThT-inactive (N-Fold <2)) |  | 0 (ThT-inactive (N-Fold <2)) | 2.263 | 183 | 2.263 | 2.263 | 0 (ThT-inactive (N-Fold <2)) |  |
| NMWQKIKIQI | 1 (ThT. Cat is 1, if Rel. ThT >2) |  |  |  | 1 (ThT. Cat is 1, if Rel. ThT >2) |  | 1 (ThT. Cat is 1, if Rel. ThT >2) | 4.001 | 10024 | 4.001 | 4.001 | 1 (ThT. Cat is 1, if Rel. ThT >2) |  |
| KNDKND | 0 (ThT-inactive (N-Fold <2)) |  | 0 (ThT-inactive (N-Fold <2)) | 0 (ThT-inactive (N-Fold <2)) | 0 (ThT-inactive (N-Fold <2)) | 0 (ThT-inactive (N-Fold <2)) | 0 (ThT-inactive (N-Fold <2)) | 1.719 | 52 | 1.719 | 1.719 |  |  |
